ChEMBL document CHEMBL3046610, “Synthesis and Biological Activities of Fluorinated Plant Growth Regulators, 4, 4, 4-Trifluoro-3-(3-indolyl)butyric Acids and 4, 4, 4-Trifluoro-3-(2-indolyl)butyric Acid Bearing a Methyl Group on the Indole Nucleus” (1997)
Activity calls are given as the source filed them. No cut-off for these calls is given here.

How the values were obtained:
Oryza sativa [1] = test: Growth promoting activity in Oryza sativa (rice) assessed as increase in shoot length at 1 x 10^-3 M relative to control; type: functional
Oryza sativa [2] = test: Growth promoting activity in Oryza sativa (rice) assessed as increase in root length at 1 x 10^-4 M relative to control; type: functional
Oryza sativa [3] = test: Growth promoting activity in Oryza sativa (rice) assessed as increase in root length at 1 x 10^-3 M relative to control; type: functional, organism-based
Lactuca sativa [4] = test: Growth promoting activity in Lactuca sativa (lettuce) assessed as increase in root length at 1 x 10^-5 M relative to control; type: functional, organism-based
Lactuca sativa [5] = test: Growth promoting activity in Lactuca sativa (lettuce) assessed as increase in root length at 1 x 10^-4 M relative to control; type: functional, organism-based
Brassica rapa [6] = test: Growth promoting activity in Brassica rapa (Chinese cabbage) assessed as increase in root length at 1 x 10^-3 M relative to control; type: functional, organism-based
Oryza sativa [7] = test: Growth promoting activity in Oryza sativa (rice) assessed as increase in shoot length at 1 x 10^-6 M relative to control; type: functional
Oryza sativa [8] = test: Growth promoting activity in Oryza sativa (rice) assessed as increase in root length at 1 x 10^-6 M relative to control; type: functional
Oryza sativa [9] = test: Growth promoting activity in Oryza sativa (rice) assessed as increase in shoot length at 1 x 10^-5 M relative to control; type: functional
Oryza sativa [10] = test: Growth promoting activity in Oryza sativa (rice) assessed as increase in root length at 1 x 10^-5 M relative to control; type: functional
Oryza sativa [11] = test: Growth promoting activity in Oryza sativa (rice) assessed as increase in shoot length at 1 x 10^-4 M relative to control; type: functional
Brassica rapa [12] = test: Growth promoting activity in Brassica rapa (Chinese cabbage) assessed as increase in root length at 1 x 10^-4 M relative to control; type: functional
Brassica rapa [13] = test: Growth promoting activity in Brassica rapa (Chinese cabbage) assessed as increase in root length; type: functional, organism-based

Cc1[nH]c2ccccc2c1C(CC(=O)O)C(F)(F)F (racemic)
Activity (Oryza sativa [1]): 36.6%
Activity (Oryza sativa [2]): 168%
Activity (Oryza sativa [3]): inactive
Activity (Lactuca sativa [4]): inactive
Activity (Lactuca sativa [5]): inactive
Activity (Brassica rapa [6]): inactive
Activity (Oryza sativa [7]): 98.8%
Activity (Oryza sativa [8]): 111.8%
Activity (Oryza sativa [9]): 103.2%
Activity (Oryza sativa [10]): 242%
Activity (Oryza sativa [11]): 84%

Cc1cccc2[nH]cc(C(CC(=O)O)C(F)(F)F)c12 (racemic)
Activity (Oryza sativa [1]): 33.7%
Activity (Oryza sativa [2]): 274.6%
Activity (Oryza sativa [3]): inactive
Activity (Lactuca sativa [4]): Active
Activity (Lactuca sativa [5]): Active
Activity (Brassica rapa [6]): inactive
Activity (Oryza sativa [7]): 103.6%
Activity (Oryza sativa [8]): 172.5%
Activity (Oryza sativa [9]): 102.7%
Activity (Oryza sativa [10]): 357.5%
Activity (Oryza sativa [11]): 86.4%
fold change (FC) (Brassica rapa [12]): 2.5
Activity (Brassica rapa [13]): Active

Cc1ccc2[nH]cc(C(CC(=O)O)C(F)(F)F)c2c1 (racemic)
Activity (Oryza sativa [1]): 31.9%
Activity (Oryza sativa [2]): 331.1%
Activity (Oryza sativa [3]): inactive
Activity (Lactuca sativa [4]): Active
Activity (Lactuca sativa [5]): Active
Activity (Brassica rapa [6]): inactive
Activity (Oryza sativa [7]): 100.5%
Activity (Oryza sativa [8]): 168.5%
Activity (Oryza sativa [9]): 105.5%
Activity (Oryza sativa [10]): 382.4%
Activity (Oryza sativa [11]): 90%

Cc1ccc2c(C(CC(=O)O)C(F)(F)F)c[nH]c2c1 (racemic)
Activity (Oryza sativa [1]): 31.5%
Activity (Oryza sativa [2]): 311.4%
Activity (Oryza sativa [3]): inactive
Activity (Lactuca sativa [4]): Active
Activity (Lactuca sativa [5]): Active
Activity (Brassica rapa [6]): inactive
Activity (Oryza sativa [7]): 103.3%
Activity (Oryza sativa [8]): 172%
Activity (Oryza sativa [9]): 106.2%
Activity (Oryza sativa [10]): 377.5%
Activity (Oryza sativa [11]): 95.9%
fold change (FC) (Brassica rapa [12]): 2.5
Activity (Brassica rapa [13]): Active

Cc1cccc2c(C(CC(=O)O)C(F)(F)F)c[nH]c12 (racemic)
Activity (Oryza sativa [1]): 36.9%
Activity (Oryza sativa [2]): 224.4%
Activity (Oryza sativa [3]): inactive
Activity (Lactuca sativa [4]): Active
Activity (Lactuca sativa [5]): Active
Activity (Brassica rapa [6]): inactive
Activity (Oryza sativa [7]): 96%
Activity (Oryza sativa [8]): 126%
Activity (Oryza sativa [9]): 112.8%
Activity (Oryza sativa [10]): 277.1%
Activity (Oryza sativa [11]): 83.3%
fold change (FC) (Brassica rapa [12]): 2.5
Activity (Brassica rapa [13]): Active

Cc1c(C(CC(=O)O)C(F)(F)F)[nH]c2ccccc12 (racemic)
Activity (Oryza sativa [1]): 38.2%
Activity (Oryza sativa [2]): 433.3%
Activity (Oryza sativa [3]): inactive
Activity (Lactuca sativa [4]): Active
Activity (Lactuca sativa [5]): inactive
Activity (Brassica rapa [6]): inactive
Activity (Oryza sativa [7]): 98.4%
Activity (Oryza sativa [8]): 134.6%
Activity (Oryza sativa [9]): 106.2%
Activity (Oryza sativa [10]): 266%
Activity (Oryza sativa [11]): 99%
fold change (FC) (Brassica rapa [12]): 2.5
Activity (Brassica rapa [13]): Active

Cn1cc(C(CC(=O)O)C(F)(F)F)c2ccccc21 (racemic)
Activity (Oryza sativa [1]): 46%
Activity (Oryza sativa [2]): 153.4%
Activity (Oryza sativa [3]): inactive
Activity (Lactuca sativa [4]): inactive
Activity (Lactuca sativa [5]): Active
Activity (Brassica rapa [6]): inactive
Activity (Oryza sativa [7]): 94.6%
Activity (Oryza sativa [8]): 136.2%
Activity (Oryza sativa [9]): 105.3%
Activity (Oryza sativa [10]): 211.1%
Activity (Oryza sativa [11]): 86.2%
Activity (Brassica rapa [13]): inactive

O=C(O)CC(c1c[nH]c2ccccc12)C(F)(F)F (racemic)
Activity (Oryza sativa [1]): 35.6%
Activity (Oryza sativa [2]): 199.5%
Activity (Oryza sativa [3]): inactive
Activity (Oryza sativa [7]): 99.2%
Activity (Oryza sativa [8]): 128.9%
Activity (Oryza sativa [9]): 99%
Activity (Oryza sativa [10]): 290.1%
Activity (Oryza sativa [11]): 76.7%
